This assay concerns the target T1, human calcium receptor (Homo sapiens, UniProt P41180).
T1 construct: expressed in transfected cells; host or cells: cell strain derived from rat adrenal, co-transformed with luciferase cDNA
T1 sequence (P41180 20-1078): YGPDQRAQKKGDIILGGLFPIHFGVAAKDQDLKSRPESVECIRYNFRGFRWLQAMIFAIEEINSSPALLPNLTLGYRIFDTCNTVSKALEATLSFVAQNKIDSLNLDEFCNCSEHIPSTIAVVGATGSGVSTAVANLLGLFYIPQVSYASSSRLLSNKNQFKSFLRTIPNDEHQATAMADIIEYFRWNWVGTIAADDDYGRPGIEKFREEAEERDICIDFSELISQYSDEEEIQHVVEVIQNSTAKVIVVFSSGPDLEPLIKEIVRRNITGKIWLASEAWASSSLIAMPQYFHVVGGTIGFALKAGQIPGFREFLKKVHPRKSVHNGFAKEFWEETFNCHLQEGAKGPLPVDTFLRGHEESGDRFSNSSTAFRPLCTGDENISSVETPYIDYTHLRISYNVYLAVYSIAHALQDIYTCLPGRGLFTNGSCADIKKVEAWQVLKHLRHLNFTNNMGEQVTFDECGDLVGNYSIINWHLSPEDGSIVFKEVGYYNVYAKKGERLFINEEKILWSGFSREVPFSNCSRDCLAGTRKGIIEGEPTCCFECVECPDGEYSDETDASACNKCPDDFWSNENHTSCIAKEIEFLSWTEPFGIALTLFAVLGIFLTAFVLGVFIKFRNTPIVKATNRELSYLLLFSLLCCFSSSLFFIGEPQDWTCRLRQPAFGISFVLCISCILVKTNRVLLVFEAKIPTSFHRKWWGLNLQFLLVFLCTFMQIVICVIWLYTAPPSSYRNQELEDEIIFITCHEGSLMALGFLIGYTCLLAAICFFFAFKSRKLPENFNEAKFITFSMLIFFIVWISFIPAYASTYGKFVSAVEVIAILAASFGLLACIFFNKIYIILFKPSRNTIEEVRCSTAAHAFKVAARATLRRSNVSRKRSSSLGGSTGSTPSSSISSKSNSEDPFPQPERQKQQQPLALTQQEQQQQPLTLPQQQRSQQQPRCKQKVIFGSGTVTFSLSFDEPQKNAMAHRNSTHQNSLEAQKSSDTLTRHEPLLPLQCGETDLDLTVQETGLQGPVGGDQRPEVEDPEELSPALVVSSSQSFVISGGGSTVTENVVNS
Put plainly: Evaluation of antagonistic action on calcium receptor using reporter gene (luciferase). Type of assay: cell-based. Particulars: transformed rat adrenal derived cells, 5 mM calcium chloride, culture 4 hrs, luciferase activity; read-out: Reporter gene assay (IC50, concentration showing 50% inhibitory rate). The method, then: Evaluation of Antagonistic Action on Calcium Receptor Using Reporter Gene
Luciferase cDNA and human calcium receptor cDNA were introduced into a cell strain derived from rat adrenal to transform the cells, and the transformed cells were cultured in a medium (80 μl, F12 medium containing 0.5% dialyzed horse serum and 0.25% dialyzed bovine fetal serum). A dimethyl sulfoxide solution containing a test compound at 0.1-10000 μM was diluted 100-fold with the medium and added to the test compound group at 10 μl per well (dimethyl sulfoxide final concentration 0.1%). In the same manner as in test compound group, dimethyl sulfoxide 100-fold diluted with medium was added to a control group and a blank group. Then, 50 mM calcium chloride-containing medium was added to every well except the blank group at 10 μl per well (final concentration 5 mM). A medium containing 50 mM calcium chloride was added to the control group at 10 μl per well, such that the final calcium concentration of the medium became 5 mM. A medium alone was added to the blank group. After culture for 4 hrs, luciferase substrate was added and the luciferase activity was measured with a photoluminometer. The inhibitory rate (%) was calculated from the obtained measured values according to the following formula.
Based on the results, the concentration (IC50) showing 50% inhibitory rate was determined. The results are shown in the aforementioned Tables 1 to 60.
Take `Cc1ccc(CC(C)(C)NC[C@@H](O)CO[C@H](C)c2ccccc2Oc2ccc(C(=O)O)cc2F)cc1F` [Example 2-34, 4-[2-[1-[(2R)-3-[[1-(3-fluoro-4-methylphenyl)-2-methylpropan-2-yl]amino]-2-hydroxypropoxy]ethyl]phenoxy]-3-fluorobenzoic acid]: the IC50 came out at 6 nM.

Turning to `Cc1cc(-c2ccccc2C(OC[C@H](O)CNC(C)(C)Cc2ccc(Cl)cc2F)C2CC2)ccc1C(=O)O` (stereo partly drawn) [Example 1-18, 2′-[(cyclopropyl)[(2R)-3-[[1-(4-chloro-2-fluorophenyl)-2-methylpropan-2-yl]amino]-2-hydroxypropoxy]methyl]-3-methylbiphenyl-4-carboxylic acid], the IC50 was found to be 16 nM. Then `Cc1ccc(CC(C)(C)NC[C@@H](O)CO[C@H](C)c2ccccc2Oc2ccc(C(=O)O)c([N+](=O)[O-])c2)cc1F` [Example 2-29, 4-[2-[1-[(2R)-3-[[1-(3-fluoro-4-methylphenyl)-2-methylpropan-2-yl]amino]-2-hydroxypropoxy]ethyl]phenoxy]-2-nitrobenzoic acid], with 11 nM; and `Cc1ccc(CC(C)(C)NC[C@@H](O)CO[C@H](C)c2ccccc2-c2ccc(C(=O)O)c(Cl)c2)cc1F` [Example 1-72, 3-chloro-2′-[1-[(2R)-3-[[1-(3-fluoro-4-methylphenyl)-2-methylpropan-2-yl]amino]-2-hydroxypropoxy]ethyl]biphenyl-4-carboxylic acid], with 15 nM. As to `Cc1ccc(CC(C)(C)NC[C@@H](O)CO[C@H](C)c2ccccc2Oc2ccc(C(=O)O)cc2C(F)(F)F)cc1F` [Example 2-33, 4-[2-[1-[(2R)-3-[[1-(3-fluoro-4-methylphenyl)-2-methylpropan-2-yl]amino]-2-hydroxypropoxy]ethyl]phenoxy]-3-trifluoromethylbenzoic acid], the IC50 was 2 nM. With `C[C@@H](OC[C@H](O)CNC(C)(C)Cc1ccc(Cl)c(F)c1)c1ccccc1-c1ccc(C(=O)O)c(C(=O)O)c1` [Example 1-107, 2′-[1-[(2R)-3-[[1-(4-chloro-3-fluorophenyl)-2-methylpropan-2-yl]amino]-2-hydroxypropoxy]ethyl]-3-carboxylphenyl-4-carboxylic acid] the figure was 200 nM; with `Cc1ccc(CC(C)(C)NC[C@@H](O)CO[C@H](C)c2ccccc2-c2ccc(C(=O)O)c(C)c2C)cc1F` [Example 1-42, 2′-[1-[(2R)-3-[[1-(3-fluoro-4-methylphenyl)-2-methylpropan-2-yl]amino]-2-hydroxypropoxy]ethyl]-2,3-dimethylbiphenyl-4-carboxylic acid], 24 nM; with `C[C@@H](OC[C@H](O)CNC(C)(C)Cc1ccc2ccccc2c1)c1ccccc1-c1ccc(CO)c(C(=O)O)c1` [Example 1-44, 4-(hydroxymethyl)-2′-[1-[(2R)-3-[[1-(naphthalen-2-yl)-2-methylpropan-2-yl]amino]-2-hydroxypropoxy]ethyl]biphenyl-3-carboxylic acid], 9 nM.

For the compound `Cc1cc(-c2ccccc2[C@@H](C)OC[C@H](O)CNC(C)(C)Cc2cccc(Cl)c2)ccc1C(=O)O` [Example 1-60, 2′-[1-[(2R)-3-[[1-(3-chlorophenyl)-2-methylpropan-2-yl]amino]-2-hydroxypropoxy]ethyl]-3-methylbiphenyl-4-carboxylic acid], the IC50 is 96 nM. With `Cc1ccc(CC(C)(C)NC[C@@H](O)CO[C@H](C)c2ccccc2OCc2ccc(C(=O)O)cc2C)cc1F` [Example 2-26, 4-[[2-[1-[(2R)-3-[[1-(3-fluoro-4-methylphenyl)-2-methylpropan-2-yl]amino]-2-hydroxypropoxy]ethyl]phenoxy]methyl]-3-methylbenzoic acid] the figure was 24 nM. Then `Cc1cc(-c2ccccc2[C@@H](C)OC[C@H](O)CNC(C)(C)Cc2ccc(Cl)cc2F)ccc1C(=O)O` [Example 1-110], with 26 nM.

With “4-[2-[1-[(2R)-3-[[1-(3-fluoro-4-methylphenyl)-2-methylpropan-2-yl]amino]-2-hydroxypropoxy]ethyl]phenoxy]-3-methoxybenzoic acid [Example 2-2]”, the IC50 is 21 nM. With `Cc1ccc(CC(C)(C)NC[C@@H](O)CO[C@H](C)c2ccccc2OCc2ccc(C(=O)O)cc2F)cc1F` [Example 2-25, 3-fluoro-4-[[2-[1-[(2R)-3-[[1-(3-fluoro-4-methylphenyl)-2-methylpropan-2-yl]amino]-2-hydroxypropoxy]ethyl]phenoxy]methyl]benzoic acid] the figure was 65 nM; with `Cc1cc(-c2ccccc2[C@@H](C)OC[C@H](O)CNC(C)(C)Cc2cc(Cl)cc(Cl)c2)ccc1C(=O)O` [Example 1-87, 2′-[1-[(2R)-3-[[1-(3,5-dichlorophenyl)-2-methylpropan-2-yl]amino]-2-hydroxypropoxy]ethyl]-3-methylbiphenyl-4-carboxylic acid], 14 nM. Then `C[C@@H](OC[C@H](O)CNC(C)(C)Cc1ccc2ccccc2c1)c1ccccc1-c1cc2c(c(C(=O)O)c1)OCC2` [Example 1-74, 2,3-dihydro-5-[2-[1-[(2R)-3-[[1-(naphthalen-2-yl)-2-methylpropan-2-yl]amino]-2-hydroxypropoxy]ethyl]phenyl]benzofuran-7-carboxylic acid], with 11 nM.

On to `Cc1ccc(CC(C)(C)NC[C@@H](O)CO[C@H](C)c2ccccc2OCc2cccc(C(=O)O)c2)cc1F` [Example 2-23, 3-[[2-[1-[(2R)-3-[[1-(3-fluoro-4-methylphenyl)-2-methylpropan-2-yl]amino]-2-hydroxypropoxy]ethyl]phenoxy]methyl]benzoic acid], for which the IC50 amounted to 27 nM. With `C[C@@H](OC[C@H](O)CNC(C)(C)Cc1ccc2ccccc2c1)c1ccccc1-c1ccc(F)c(C(=O)O)c1` [Example 1-56, 4-fluoro-2′-[1-[(2R)-3-[[1-(naphthalen-2-yl)-2-methylpropan-2-yl]amino]-2-hydroxypropoxy]ethyl]biphenyl-3-carboxylic acid] the figure was 19 nM; with `CCCc1cc(-c2ccccc2[C@@H](C)OC[C@H](O)CNC(C)(C)Cc2ccc3ccccc3c2)ccc1C(=O)O` [Example 1-36, 2′-[1-[(2R)-3-[[1-(naphthalen-2-yl)-2-methylpropan-2-yl]amino]-2-hydroxypropoxy]ethyl]-3-propylbiphenyl-4-carboxylic acid], 2 nM. Then `CC(C)Cc1cc(-c2ccccc2[C@@H](C)OC[C@H](O)CNC(C)(C)Cc2ccc3ccccc3c2)ccc1C(=O)O` [Example 1-45, 3-isobutyl-2′-[1-[(2R)-3-[[1-(naphthalen-2-yl)-2-methylpropan-2-yl]amino]-2-hydroxypropoxy]ethyl]biphenyl-4-carboxylic acid], with 2 nM; and `CC(C)c1cc(-c2ccccc2[C@@H](C)OC[C@H](O)CNC(C)(C)Cc2ccc(Cl)c(F)c2)ccc1C(=O)O` [Example 1-52, 2′-[1-[(2R)-3-[[1-(4-chloro-3-fluorophenyl)-2-methylpropan-2-yl]amino]-2-hydroxypropoxy]ethyl]-3-isopropylbiphenyl-4-carboxylic acid], with 3 nM; and `Cc1ccc(CC(C)(C)NC[C@@H](O)CO[C@H](C)c2ccccc2-c2cc(C)c(C(=O)O)c(C)c2)cc1F` [Example 1-43, 2′-[1-[(2R)-3-[[1-(3-fluoro-4-methylphenyl)-2-methylpropan-2-yl]amino]-2-hydroxypropoxy]ethyl]-3,5-dimethylbiphenyl-4-carboxylic acid], with 16 nM. Turning to `Cc1cc(-c2ccccc2[C@H](OC[C@H](O)CNC(C)(C)Cc2ccc(Cl)c(F)c2)C2CC2)ccc1C(=O)O` [Example 1-19, 2′-[(cyclopropyl)[(2R)-3-[[1-(4-chloro-3-fluorophenyl)-2-methylpropan-2-yl]amino]-2-hydroxypropoxy]methyl]-3-methylbiphenyl-4-carboxylic acid], the IC50 was determined as 5 nM.

Source of the values: patent US7304174B2, “CaSR antagonist” (Japan Tobacco Inc., priority 2003, dated 2007).
